From paper doi:10.1101/2020.06.24.169508v1 (biorxiv, 2020)

Experiments:
[1] = target: T1, VhChiP (chitooligosaccharide-specific porin, chitoporin) (Vibrio harveyi, UniProt L0RVU0); assay: intrinsic tryptophan fluorescence titration; type: binding; settings: 20 mM phosphate pH 7.4, 0.2% LDAO, 25 °C; one-site fit
T1 sequence (L0RVU0 26-375): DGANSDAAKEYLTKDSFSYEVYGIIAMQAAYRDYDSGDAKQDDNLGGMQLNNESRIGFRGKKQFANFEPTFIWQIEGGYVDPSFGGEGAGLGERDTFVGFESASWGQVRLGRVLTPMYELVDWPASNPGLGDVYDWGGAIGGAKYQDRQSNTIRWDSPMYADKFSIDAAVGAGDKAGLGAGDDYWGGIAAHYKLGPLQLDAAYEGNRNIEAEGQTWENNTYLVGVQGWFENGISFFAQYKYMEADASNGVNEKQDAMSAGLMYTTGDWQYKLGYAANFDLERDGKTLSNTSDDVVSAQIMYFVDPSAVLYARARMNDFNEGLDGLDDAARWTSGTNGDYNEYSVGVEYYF

[2] = target: T1, VhChiP (chitooligosaccharide-specific porin, chitoporin); assay: biochemical; settings: read-out: WT ΔTm (CD)
[3] = target: T1, VhChiP (chitooligosaccharide-specific porin, chitoporin); assay: biochemical; settings: read-out: WT ΔTm (fluorescence)

SMILES | K [1] | ΔTm at 100 µM [2] | ΔTm at 1000 µM [3]
CC(=O)N[C@H]1[C@H](O[C@H]2[C@H](O)[C@@H](NC(C)=O)C(O)O[C@@H]2CO)O[C@H](CO)[C@@H](O)[C@@H]1O (stereo partly shown) [Chitobiose] | 0.1 ± 0.04 ×10^5 M^-1 | 2.1 °C | 4 °C
CC(=O)N[C@H]1[C@H](O[C@H]2[C@H](O)[C@@H](NC(C)=O)[C@H](O[C@H]3[C@H](O)[C@@H](NC(C)=O)C(O)O[C@@H]3CO)O[C@@H]2CO)O[C@H](CO)[C@@H](O[C@@H]2O[C@H](CO)[C@@H](O[C@@H]3O[C@H](CO)[C@@H](O[C@@H]4O[C@H](CO)[C@@H](O)[C@H](O)[C@H]4NC(C)=O)[C@H](O)[C@H]3NC(C)=O)[C@H](O)[C@H]2NC(C)=O)[C@@H]1O (stereo partly shown) [Chitohexaose] | 13 ± 0.5 ×10^5 M^-1 | 7 °C | 8 °C
CC(=O)N[C@H]1[C@H](O[C@H]2[C@H](O)[C@@H](NC(C)=O)[C@H](O[C@H]3[C@H](O)[C@@H](NC(C)=O)C(O)O[C@@H]3CO)O[C@@H]2CO)O[C@H](CO)[C@@H](O[C@@H]2O[C@H](CO)[C@@H](O[C@@H]3O[C@H](CO)[C@@H](O)[C@H](O)[C@H]3NC(C)=O)[C@H](O)[C@H]2NC(C)=O)[C@@H]1O (stereo partly shown) [Chitopentaose] | 3.8 ± 0.2 ×10^5 M^-1 | 5.7 °C | 6 °C
CC(=O)N[C@H]1[C@H](O[C@H]2[C@H](O)[C@@H](NC(C)=O)C(O)O[C@@H]2CO)O[C@H](CO)[C@@H](O[C@@H]2O[C@H](CO)[C@@H](O[C@@H]3O[C@H](CO)[C@@H](O)[C@H](O)[C@H]3NC(C)=O)[C@H](O)[C@H]2NC(C)=O)[C@@H]1O (stereo partly shown) [Chitotetraose] | 1.4 ± 0.01 ×10^5 M^-1 | 3.8 °C | 5 °C
CC(=O)N[C@H]1[C@H](O[C@H]2[C@H](O)[C@@H](NC(C)=O)C(O)O[C@@H]2CO)O[C@H](CO)[C@@H](O[C@@H]2O[C@H](CO)[C@@H](O)[C@H](O)[C@H]2NC(C)=O)[C@@H]1O (stereo partly shown) [Chitotriose] | 0.5 ± 0.03 ×10^5 M^-1 | 3.2 °C | 4 °C
CC(=O)N[C@H]1C(O)O[C@H](CO)[C@@H](O)[C@@H]1O (stereo partly drawn) [D-GlcNAc] |  |  | 2 °C
